# Test results taken from patent publication US8273880B2, “Pyrazole compounds with inhibitory activity against ROS kinase” (Korea Institute of Science and Technology, priority 2009, dated 2012).
# “Also recorded” adds a separate entry of the source.
# Columns and labels:
# Format in all cases: biochemical
# [1] = test system: 45 different kinases; assay: Kinase selectivity from screening over 45 different kinases
# Method: (§1) Kinase screening was performed using a “HotSpot” assay platform commercially available from Reaction Biology Corporation. For this kinase screening, reaction buffers were based on 20 mM Hepes (pH 7.5), 10 mM MgCl2, 1 mM EGTA, 0.02% Brij35, 0.02 mg/mL BSA, 0.1 mM Na3VO4, 2 mM DTT, and 1% DMSO, with supplementary factors necessary for respective kinase reactions added thereto. In each enzyme reaction, […] of each kinase was used together with a fresh reaction buffer and appropriate supplementary factors. A solution of each compound in DMSO was added in a suitable concentration to the reaction buffer. Kinase reaction started with the introduction of […] (specific activity […]) and continued for 2 hours at room temperature.
# (§2) 1) Screening of Compounds Over 45 Different Kinases
# (§3) Each compound was tested twice at a single dose concentration of 10 μM. […] The reaction was performed with 10 μM ATP.
# [2] = target: T1, SYK (Homo sapiens, UniProt P43405); assay: HotSpot kinase screening over 45 different kinases, single dose 10 μM; conditions: single dose concentration of 10 μM, 10 μM ATP
# T1 construct: purchased Reaction Biology Corporation
# Method: as §1, §2, §3
# [3] = target: T2, RON/MST1R (Homo sapiens, UniProt Q04912); assay: as above; conditions: single dose concentration of 10 μM, 10 μM ATP
# T2 construct: purchased Reaction Biology Corporation
# Method: as §1, §2, §3
# [4] = target: T3, CK1epsilon (Homo sapiens, UniProt P49674); assay: as above; conditions: single dose concentration of 10 μM, 10 μM ATP
# T3 construct: purchased Reaction Biology Corporation
# Method: as §1, §2, §3
# [5] = target: T4, PIM1 (Homo sapiens, UniProt P11309); assay: as above; conditions: single dose concentration of 10 μM, 10 μM ATP
# T4 construct: purchased Reaction Biology Corporation
# Method: as §1, §2, §3
# [6] = target: T5, CDK1/cyclinB (Homo sapiens, UniProt P06493); assay: as above; conditions: single dose concentration of 10 μM, 10 μM ATP
# T5 construct: purchased Reaction Biology Corporation
# Method: as §1, §2, §3
# [7] = target: T6, IR (Homo sapiens, UniProt P06213); assay: as above; conditions: single dose concentration of 10 μM, 10 μM ATP
# T6 construct: purchased Reaction Biology Corporation
# Method: as §1, §2, §3
# [8] = target: T7, c-Kit (Homo sapiens, UniProt P10721); assay: as above; conditions: single dose concentration of 10 μM, 10 μM ATP
# T7 construct: purchased Reaction Biology Corporation
# Method: as §1, §2, §3
# [9] = target: T8, RocK1 (Homo sapiens, UniProt Q13464); assay: as above; conditions: single dose concentration of 10 μM, 10 μM ATP
# T8 construct: purchased Reaction Biology Corporation
# Method: as §1, §2, §3
# [10] = target: T9, MEK1 (Homo sapiens, UniProt Q02750); assay: as above; conditions: single dose concentration of 10 μM, 10 μM ATP
# T9 construct: purchased Reaction Biology Corporation
# Method: as §1, §2, §3
# [11] = target: T10, PLK1 (Homo sapiens, UniProt P53350); assay: as above; conditions: single dose concentration of 10 μM, 10 μM ATP
# T10 construct: purchased Reaction Biology Corporation
# Method: as §1, §2, §3
# [12] = target: T11, DNA-PK (Homo sapiens, UniProt P78527); assay: as above; conditions: single dose concentration of 10 μM, 10 μM ATP
# T11 construct: purchased Reaction Biology Corporation
# Method: as §1, §2, §3
# [13] = target: T12, FLT1 (Homo sapiens, UniProt P17948); assay: as above; conditions: single dose concentration of 10 μM, 10 μM ATP
# T12 construct: purchased Reaction Biology Corporation
# Method: as §1, §2, §3
# [14] = target: T13, TIE2/TEK (Homo sapiens, UniProt Q02763); assay: as above; conditions: single dose concentration of 10 μM, 10 μM ATP
# T13 construct: purchased Reaction Biology Corporation
# Method: as §1, §2, §3
# [15] = target: T14, TRKA/NTRK1 (Homo sapiens, UniProt P04629); assay: as above; conditions: single dose concentration of 10 μM, 10 μM ATP
# T14 construct: purchased Reaction Biology Corporation
# Method: as §1, §2, §3
# [16] = target: T15, LCK (Homo sapiens, UniProt P06239); assay: as above; conditions: single dose concentration of 10 μM, 10 μM ATP
# T15 construct: purchased Reaction Biology Corporation
# Method: as §1, §2, §3
# [17] = target: T16, EPHA1 (Homo sapiens, UniProt P21709); assay: as above; conditions: single dose concentration of 10 μM, 10 μM ATP
# T16 construct: purchased Reaction Biology Corporation
# Method: as §1, §2, §3
# [18] = target: T17, BRAF (Homo sapiens, UniProt P15056); assay: as above; conditions: single dose concentration of 10 μM, 10 μM ATP
# T17 construct: purchased Reaction Biology Corporation
# Method: as §1, §2, §3
# [19] = target: T18, c-MET (Homo sapiens, UniProt P08581); assay: as above; conditions: single dose concentration of 10 μM, 10 μM ATP
# T18 construct: purchased Reaction Biology Corporation
# Method: as §1, §2, §3
# [20] = target: T19, PAK4 (Homo sapiens, UniProt O96013); assay: as above; conditions: single dose concentration of 10 μM, 10 μM ATP
# T19 construct: purchased Reaction Biology Corporation
# Method: as §1, §2, §3
# [21] = target: T20, JNK1a1 (Homo sapiens, UniProt P45983); assay: as above; conditions: single dose concentration of 10 μM, 10 μM ATP
# T20 construct: purchased Reaction Biology Corporation
# Method: as §1, §2, §3
# [22] = target: T21, p70S6K (Homo sapiens, UniProt P23443); assay: as above; conditions: single dose concentration of 10 μM, 10 μM ATP
# T21 construct: purchased Reaction Biology Corporation
# Method: as §1, §2, §3
# [23] = target: T22, JAK1 (Homo sapiens, UniProt P23458); assay: as above; conditions: single dose concentration of 10 μM, 10 μM ATP
# T22 construct: purchased Reaction Biology Corporation
# Method: as §1, §2, §3
# [24] = target: T23, MST4 (Homo sapiens, UniProt Q9P289); assay: as above; conditions: single dose concentration of 10 μM, 10 μM ATP
# T23 construct: purchased Reaction Biology Corporation
# Method: as §1, §2, §3
# [25] = compared to enzyme activity in DMSO control
# T17 sequence (P15056 whole entry): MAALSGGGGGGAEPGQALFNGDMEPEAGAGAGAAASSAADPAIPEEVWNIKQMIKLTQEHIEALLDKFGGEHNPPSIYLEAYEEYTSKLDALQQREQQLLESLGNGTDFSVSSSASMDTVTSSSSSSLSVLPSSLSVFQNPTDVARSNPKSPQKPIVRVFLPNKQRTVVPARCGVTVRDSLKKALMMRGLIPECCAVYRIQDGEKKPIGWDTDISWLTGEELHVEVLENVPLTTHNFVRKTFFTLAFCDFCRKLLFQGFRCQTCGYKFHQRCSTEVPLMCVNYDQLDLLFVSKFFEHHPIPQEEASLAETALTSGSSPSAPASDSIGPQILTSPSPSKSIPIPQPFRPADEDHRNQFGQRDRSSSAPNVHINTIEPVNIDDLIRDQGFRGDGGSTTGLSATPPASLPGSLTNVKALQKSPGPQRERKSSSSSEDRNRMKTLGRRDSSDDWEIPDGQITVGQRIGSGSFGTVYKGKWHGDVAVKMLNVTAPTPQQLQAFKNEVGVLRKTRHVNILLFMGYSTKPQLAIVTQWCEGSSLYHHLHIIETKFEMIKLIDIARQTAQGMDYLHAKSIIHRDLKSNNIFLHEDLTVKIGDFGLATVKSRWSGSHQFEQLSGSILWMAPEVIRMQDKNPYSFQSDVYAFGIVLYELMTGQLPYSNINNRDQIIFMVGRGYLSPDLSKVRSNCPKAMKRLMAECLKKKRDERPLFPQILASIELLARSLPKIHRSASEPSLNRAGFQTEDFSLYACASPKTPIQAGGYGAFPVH
# T5 sequence (P06493 whole entry): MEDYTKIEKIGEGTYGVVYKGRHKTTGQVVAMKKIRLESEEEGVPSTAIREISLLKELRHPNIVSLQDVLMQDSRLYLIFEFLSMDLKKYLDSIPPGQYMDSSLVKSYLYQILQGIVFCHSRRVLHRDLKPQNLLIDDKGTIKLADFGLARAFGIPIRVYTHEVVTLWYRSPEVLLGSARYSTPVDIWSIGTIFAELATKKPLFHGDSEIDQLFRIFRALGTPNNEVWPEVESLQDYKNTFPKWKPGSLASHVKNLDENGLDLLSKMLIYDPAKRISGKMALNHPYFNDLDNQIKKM
# T5 sequence (P14635 whole entry partner): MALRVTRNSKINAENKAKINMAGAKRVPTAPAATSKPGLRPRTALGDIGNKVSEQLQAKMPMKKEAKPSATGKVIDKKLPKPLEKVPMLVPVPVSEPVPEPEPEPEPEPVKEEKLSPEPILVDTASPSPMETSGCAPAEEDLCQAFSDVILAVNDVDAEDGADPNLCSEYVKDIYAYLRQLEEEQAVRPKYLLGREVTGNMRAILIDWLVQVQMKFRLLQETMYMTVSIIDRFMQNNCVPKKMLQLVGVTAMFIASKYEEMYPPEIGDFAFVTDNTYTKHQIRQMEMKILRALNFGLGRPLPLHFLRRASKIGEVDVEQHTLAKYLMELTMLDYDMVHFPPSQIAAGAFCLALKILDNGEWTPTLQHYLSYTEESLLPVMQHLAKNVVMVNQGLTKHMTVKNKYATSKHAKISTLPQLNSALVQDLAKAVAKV
# T7 sequence (P10721 26-976): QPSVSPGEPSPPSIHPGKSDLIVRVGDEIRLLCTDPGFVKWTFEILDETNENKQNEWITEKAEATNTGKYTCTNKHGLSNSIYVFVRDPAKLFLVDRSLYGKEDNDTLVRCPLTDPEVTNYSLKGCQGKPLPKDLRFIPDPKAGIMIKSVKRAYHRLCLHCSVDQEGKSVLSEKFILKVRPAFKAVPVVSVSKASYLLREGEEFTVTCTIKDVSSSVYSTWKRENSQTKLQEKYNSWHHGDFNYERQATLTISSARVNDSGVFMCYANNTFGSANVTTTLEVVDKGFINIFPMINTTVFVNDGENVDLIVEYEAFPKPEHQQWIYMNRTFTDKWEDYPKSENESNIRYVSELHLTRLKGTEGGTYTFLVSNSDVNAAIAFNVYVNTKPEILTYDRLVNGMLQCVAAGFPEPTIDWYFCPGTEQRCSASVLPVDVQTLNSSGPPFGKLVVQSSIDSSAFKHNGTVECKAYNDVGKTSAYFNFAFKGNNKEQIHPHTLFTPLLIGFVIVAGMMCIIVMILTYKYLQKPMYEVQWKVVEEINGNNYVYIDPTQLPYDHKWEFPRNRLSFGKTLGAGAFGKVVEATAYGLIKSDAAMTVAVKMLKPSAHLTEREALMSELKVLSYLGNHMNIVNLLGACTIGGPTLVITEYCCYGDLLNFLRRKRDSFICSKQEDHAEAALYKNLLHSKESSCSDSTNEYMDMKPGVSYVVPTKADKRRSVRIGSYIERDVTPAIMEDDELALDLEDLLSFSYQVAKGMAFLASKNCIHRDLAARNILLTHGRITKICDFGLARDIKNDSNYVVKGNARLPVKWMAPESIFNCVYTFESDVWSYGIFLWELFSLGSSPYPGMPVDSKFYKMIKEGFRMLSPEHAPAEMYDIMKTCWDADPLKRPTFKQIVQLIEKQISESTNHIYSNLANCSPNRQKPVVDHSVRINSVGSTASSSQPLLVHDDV
# T20 sequence (P45983 1-384 isoform P45983-2): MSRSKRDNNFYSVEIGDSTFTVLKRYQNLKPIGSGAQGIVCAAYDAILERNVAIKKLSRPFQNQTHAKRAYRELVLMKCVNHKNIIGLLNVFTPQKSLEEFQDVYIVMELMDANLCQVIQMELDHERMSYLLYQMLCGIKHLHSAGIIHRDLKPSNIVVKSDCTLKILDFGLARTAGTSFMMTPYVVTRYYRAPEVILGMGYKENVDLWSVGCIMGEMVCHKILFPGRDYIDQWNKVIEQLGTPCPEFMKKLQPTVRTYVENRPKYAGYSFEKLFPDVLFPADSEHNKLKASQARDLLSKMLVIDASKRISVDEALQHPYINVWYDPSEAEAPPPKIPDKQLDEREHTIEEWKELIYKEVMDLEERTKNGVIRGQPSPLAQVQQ
# T22 sequence (P23458 whole entry): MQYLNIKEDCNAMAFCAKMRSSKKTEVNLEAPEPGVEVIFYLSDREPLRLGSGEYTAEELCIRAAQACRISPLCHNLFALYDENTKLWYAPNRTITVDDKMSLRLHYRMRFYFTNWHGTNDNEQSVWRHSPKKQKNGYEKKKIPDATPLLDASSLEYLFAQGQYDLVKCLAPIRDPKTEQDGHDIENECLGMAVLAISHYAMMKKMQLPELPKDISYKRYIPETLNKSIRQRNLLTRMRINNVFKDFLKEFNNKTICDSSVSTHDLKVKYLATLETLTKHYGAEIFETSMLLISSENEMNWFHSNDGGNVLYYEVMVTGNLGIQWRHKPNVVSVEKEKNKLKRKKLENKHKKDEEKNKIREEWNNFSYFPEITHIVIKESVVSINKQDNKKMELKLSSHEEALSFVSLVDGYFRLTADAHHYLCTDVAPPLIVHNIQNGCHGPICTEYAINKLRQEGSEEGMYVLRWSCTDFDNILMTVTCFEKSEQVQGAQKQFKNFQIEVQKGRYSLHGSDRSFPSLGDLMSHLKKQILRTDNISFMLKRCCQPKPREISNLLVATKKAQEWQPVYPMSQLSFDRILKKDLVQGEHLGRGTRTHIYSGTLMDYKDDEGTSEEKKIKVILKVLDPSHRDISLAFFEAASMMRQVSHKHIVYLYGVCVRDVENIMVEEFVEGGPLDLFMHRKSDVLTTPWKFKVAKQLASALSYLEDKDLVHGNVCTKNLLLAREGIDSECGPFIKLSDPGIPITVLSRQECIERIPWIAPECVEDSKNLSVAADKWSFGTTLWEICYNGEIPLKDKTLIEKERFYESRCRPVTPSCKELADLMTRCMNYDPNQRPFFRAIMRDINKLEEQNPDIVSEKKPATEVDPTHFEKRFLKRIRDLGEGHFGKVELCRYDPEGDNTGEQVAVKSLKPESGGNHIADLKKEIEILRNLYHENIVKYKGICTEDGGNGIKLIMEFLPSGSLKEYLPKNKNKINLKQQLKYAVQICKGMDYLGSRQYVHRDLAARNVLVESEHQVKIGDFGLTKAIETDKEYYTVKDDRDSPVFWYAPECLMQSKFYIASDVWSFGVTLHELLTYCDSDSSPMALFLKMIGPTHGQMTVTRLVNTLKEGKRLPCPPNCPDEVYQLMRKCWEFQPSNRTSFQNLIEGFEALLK
# T10 sequence (P53350 whole entry): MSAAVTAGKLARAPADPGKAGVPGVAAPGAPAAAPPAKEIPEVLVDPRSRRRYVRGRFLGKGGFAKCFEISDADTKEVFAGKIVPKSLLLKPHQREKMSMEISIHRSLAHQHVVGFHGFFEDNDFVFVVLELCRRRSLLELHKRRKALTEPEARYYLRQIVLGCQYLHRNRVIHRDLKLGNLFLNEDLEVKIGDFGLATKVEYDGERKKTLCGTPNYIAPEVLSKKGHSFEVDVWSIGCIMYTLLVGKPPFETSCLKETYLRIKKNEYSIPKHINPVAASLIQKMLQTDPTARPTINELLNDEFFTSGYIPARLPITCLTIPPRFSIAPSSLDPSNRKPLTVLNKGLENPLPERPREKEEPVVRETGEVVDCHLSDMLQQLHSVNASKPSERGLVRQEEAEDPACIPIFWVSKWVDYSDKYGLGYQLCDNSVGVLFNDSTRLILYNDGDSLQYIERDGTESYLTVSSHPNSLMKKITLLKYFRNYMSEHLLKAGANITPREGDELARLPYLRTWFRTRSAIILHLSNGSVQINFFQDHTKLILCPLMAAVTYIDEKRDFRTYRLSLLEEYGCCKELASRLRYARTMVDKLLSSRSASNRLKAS
# T3 sequence (P49674 whole entry): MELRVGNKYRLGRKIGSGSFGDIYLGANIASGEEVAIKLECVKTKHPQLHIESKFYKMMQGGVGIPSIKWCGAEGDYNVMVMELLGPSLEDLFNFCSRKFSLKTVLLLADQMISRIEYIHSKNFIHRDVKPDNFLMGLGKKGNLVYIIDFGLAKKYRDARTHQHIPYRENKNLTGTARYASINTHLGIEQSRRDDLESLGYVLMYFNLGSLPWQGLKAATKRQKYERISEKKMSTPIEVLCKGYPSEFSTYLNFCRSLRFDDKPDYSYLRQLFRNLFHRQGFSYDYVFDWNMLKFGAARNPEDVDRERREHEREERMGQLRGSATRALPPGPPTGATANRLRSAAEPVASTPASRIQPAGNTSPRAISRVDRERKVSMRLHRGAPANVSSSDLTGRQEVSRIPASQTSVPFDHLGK
compound,measurement,setting,value
"Cc1cc(O)cc(-c2nn(CC#N)cc2-c2cc(NC[C@H](C)O)nc(-c3cccnc3)n2)c1 [Example 10, [4-[6-(2(S)-hydroxypropylamino)-2-pyridin-3-yl-pyrimidin-4-yl]-3-(3-hydroxy-5-methylphenyl)-pyrazol-1-yl]acetonitrile]",Notes (selectivity for ROS),[1],"no inhibitory activity against almost all of the tested kinases, except for ROS kinase; also recorded: Selective for ROS"
same,inhibition at 10 µM,[2],8.23%
same,activity at 10 µM,[2]; [25],91.8%
same,inhibition at 10 µM,[3],28.8%
same,activity at 10 µM,[3]; [25],71.1%
same,inhibition at 10 µM,[4],9.32%
same,activity at 10 µM,[4]; [25],90.7%
same,inhibition at 10 µM,[5],5.91%
same,activity at 10 µM,[5]; [25],94.1%
same,inhibition at 10 µM,[6],3.64%
same,activity at 10 µM,[6]; [25],96.4%
same,inhibition at 10 µM,[7],7.01%
same,activity at 10 µM,[7]; [25],93%
same,inhibition at 10 µM,[8],2.85%
same,activity at 10 µM,[8]; [25],97.2%
same,inhibition at 10 µM,[9],11.7%
same,activity at 10 µM,[9]; [25],88.3%
same,inhibition at 10 µM,[10],-6.97%
same,activity at 10 µM,[10]; [25],107%
same,inhibition at 10 µM,[11],5.85%
same,activity at 10 µM,[11]; [25],94.2%
same,inhibition at 10 µM,[12],6.56%
same,activity at 10 µM,[12]; [25],93.4%
same,inhibition at 10 µM,[13],-1.67%
same,activity at 10 µM,[13]; [25],102%
same,inhibition at 10 µM,[14],8.17%
same,activity at 10 µM,[14]; [25],91.8%
same,inhibition at 10 µM,[15],-0.14%
same,activity at 10 µM,[15]; [25],100%
same,inhibition at 10 µM,[16],10.3%
same,activity at 10 µM,[16]; [25],89.7%
same,inhibition at 10 µM,[17],23.3%
same,activity at 10 µM,[17]; [25],76.7%
same,inhibition at 10 µM,[18],8.97%
same,activity at 10 µM,[18]; [25],91%
same,inhibition at 10 µM,[19],5.82%
same,activity at 10 µM,[19]; [25],94.2%
same,inhibition at 10 µM,[20],1.37%
same,activity at 10 µM,[20]; [25],98.6%
same,inhibition at 10 µM,[21],3.83%
same,activity at 10 µM,[21]; [25],96.2%
same,inhibition at 10 µM,[22],5.79%
same,activity at 10 µM,[22]; [25],94.2%
same,inhibition at 10 µM,[23],9.15%
same,activity at 10 µM,[23]; [25],90.8%
same,inhibition at 10 µM,[24],-1.54%
